How the values were obtained:
[1] = system: P. aeruginosa PAO1; assay: Assay 4: boosting of antibiotic activity by EPI example 37 in P. aeruginosa; assay type: cell-based, Pseudomonas aeruginosa; settings: MIC of the named antibiotic boosted by 100 μM example 37
Description: (§1) Escherichia coli BW25113 (CGSC 7636) and its derivatives E. coli ΔtolC (JW5503-1, ΔtolC732::kan, CGSC 11430), E. coli ΔacrA (JW0452-3, ΔacrA748::kan, CGSC 11843) and E. coli ΔacrB (JW0451-2, ΔacrB747::kan, CGSC 8609) were obtained from E. coli Genetic Stock Center (CGSC, New Haven, Connecticut) and originated from the Keio Collection (Baba T et al, Mol Sys Biol, 2006). Klebsiella pneumoniae (LMG 2095/ATCC 13883) and K. pneumoniae (ATCC43816), Pseudomonas aeruginosa (PAO1), Acinetobacter baumannii (LMG 1025, ATCC 17978), were obtained from ATCC or BCCM/LMG Bacteria Collection. All bacteria were grown and tested in cation-adjusted Mueller-Hinton broth (CAMHB; BD Difco) at 37° C. For conservation, log phase bacteria were frozen (−80° C.) in CAMHB supplemented with 15% glycerol.
(§2) Measurement of the Impact of EPI Example 37 on the Boosting of Antibiotic Activity in E. coli, A. baumannii, K. pneumoniae and P. aeruginosa.
(§3) Bacterial suspensions were then prepared in CAMHB from a growing pre-culture, (E. coli [OD600=0.001], A. baumannii [OD600=0.001], K. pneumoniae [OD600=0.001] and P. aeruginosa [OD600=0.001]), and added to the microplate using a ViaFill. Microplate containing bacterial cultures were then grown (5 h or 24 h, 37° C.) and bacterial viability determined by either resazurin reduction or OD600.

[2] = system: K. pneumoniae ATCC13883; assay: Assay 4: boosting of antibiotic activity by EPI example 37 in K. pneumoniae ATCC13883; assay type: cell-based, Klebsiella pneumoniae
Description: as §1, §2, §3

[3] = system: K. pneumoniae ATCC43816; assay: Assay 4: boosting of antibiotic activity by EPI example 37 in K. pneumoniae ATCC43816; assay type: cell-based, Klebsiella pneumoniae; settings: MIC of the named antibiotic boosted by 100 μM example 37
Description: as §1, §2, §3

[4] = system: E. coli BW25113; assay: Assay 4: boosting of antibiotic activity by EPI example 37 in E. coli; assay type: cell-based, Escherichia coli; settings: MIC of the named antibiotic boosted by 100 μM example 37
Description: as §1, §2, §3

[5] = system: A. baumannii LMG; assay: Assay 4: boosting of antibiotic activity by EPI example 37 in A. baumannii; assay type: cell-based, Acinetobacter baumannii; settings: MIC of the named antibiotic boosted by 100 μM example 37
Description: as §1, §2, §3

[6] = system: A. baumannii LMG 1025 (ATCC 17978); assay: Assay 2: growth inhibition of A. baumannii by sub-inhibitory chloramphenicol in combination with examples (resazurin reduction); assay type: cell-based; settings: Acinetobacter baumannii; antibiotic alone, no EPI
[7] = system: A. baumannii LMG 1025 (ATCC 17978); assay: Assay 3: growth inhibition of A. baumannii by sub-inhibitory novobiocin in combination with examples (resazurin reduction); assay type: cell-based; settings: Acinetobacter baumannii; antibiotic alone, no EPI
[8] = MIC of the named antibiotic boosted by 100 μM example 37

Compound	P. aeruginosa PAO1 Fold Boosted MIC By 100 μM example 37 [1]	K. pneumoniae ATCC13883 Fold Boosted MIC By 100 μM example 37 [2, 8]	K. pneumoniae ATCC43816 Fold Boosted MIC By 100 μM example 37 [3]	E. coli BW25113 Fold Boosted MIC By 100 μM example 37 [4]	K. pneumoniae ATCC13883 Fold Boosted MIC By 100 μM example 37 ([2]; 100 μM example 37)	A. baumannii LMG Fold Boosted MIC By 100 μM example 37 [5]	MIC90 [6] [µg/mL]	MIC90 [7] [µg/mL]
CC[C@H]1OC(=O)[C@H](C)[C@@H](O[C@H]2C[C@@](C)(OC)[C@@H](O)[C@H](C)O2)[C@H](C)[C@@H](O[C@@H]2O[C@H](C)C[C@H](N(C)C)[C@H]2O)[C@](C)(O)C[C@@H](C)CN(C)[C@H](C)[C@@H](O)[C@]1(C)O [Azithromycin (AZY), Azithromycin]	*** (*** = 8 fold +)	** (** = 4-7.9 fold)	** (** = 4-7.9 fold)	–	–	–	–	–
CC[C@H]1OC(=O)[C@H](C)[C@@H](O[C@H]2C[C@@](C)(OC)[C@@H](O)[C@H](C)O2)[C@H](C)[C@@H](O[C@@H]2O[C@H](C)C[C@H](N(C)C)[C@H]2O)[C@](C)(O)C[C@@H](C)C(=O)[C@H](C)[C@@H](O)[C@]1(C)O [Erythromycin (ERY), Erythromycin]	–	*** (*** = 8 fold +)	** (** = 4-7.9 fold)	** (** = 4-7.9 fold)	–	–	–	–
CC(=O)O[C@H]1C[C@@]2(C)[C@@H](C[C@@H](O)[C@H]3[C@@]4(C)CC[C@@H](O)[C@@H](C)[C@@H]4CC[C@@]32C)/C1=C(\CCC=C(C)C)C(=O)O [Fusidic Acid (FUS), Fusidic Acid]	–	–	** (** = 4-7.9 fold)	*** (*** = 8 fold +)	2-4 fold	–	–	–
CC(=O)NC[C@H]1CN(c2ccc(N3CCOCC3)c(F)c2)C(=O)O1 [Linezolid (LIN), Linezolid]	* (* = 2-3.9 fold)	*** (*** = 8 fold +)	*** (*** = 8 fold +)	*** (*** = 8 fold +)	–	* (* = 2-3.9 fold)	–	–
Cc1onc(-c2ccccc2)c1C(=O)N[C@@H]1C(=O)N2[C@@H]1SC(C)(C)[C@@H]2C(=O)O [Oxacillin (OXA), Oxacillin]	* (* = 2-3.9 fold)	*** (*** = 8 fold +)	*** (*** = 8 fold +)	*** (*** = 8 fold +)	–	–	–	–
CCN1CCN(C(=O)N[C@@H](C(=O)N[C@@H]2C(=O)N3[C@@H]2SC(C)(C)[C@@H]3C(=O)O)c2ccccc2)C(=O)C1=O [Piperacillin (PPC), Piperacillin]	–	* (* = 2-3.9 fold)	* (* = 2-3.9 fold)	** (** = 4-7.9 fold)	–	–	–	–
[H]/N=C(/N)N[C@H]1[C@H](O)[C@@H](O)[C@H](O[C@@H]2O[C@@H](C)[C@](O)(C=O)[C@H]2O[C@@H]2O[C@@H](CO)[C@H](O)[C@@H](O)[C@@H]2NC)[C@@H](N/C(N)=N\[H])[C@@H]1O [Streptomycin (STP), Streptomycin]	* (* = 2-3.9 fold)	–	–	–	–	–	–	–
Oc1cc(Cl)ccc1Oc1ccc(Cl)cc1Cl [Triclosan (TRC), Triclosan]	–	*** (*** = 8 fold +)	*** (*** = 8 fold +)	* (* = 2-3.9 fold)	–	* (* = 2-3.9 fold)	–	–
O=C(N[C@H](CO)[C@H](O)c1ccc([N+](=O)[O-])cc1)C(Cl)Cl [chloramphenicol]	–	** (** = 4-7.9 fold)	* (* = 2-3.9 fold)	*** (*** = 8 fold +)	–	* (* = 2-3.9 fold)	25 to 100	–
CO[C@@H]1[C@@H](OC(N)=O)[C@@H](O)[C@H](Oc2ccc3c(O)c(NC(=O)c4ccc(O)c(CC=C(C)C)c4)c(=O)oc3c2C)OC1(C)C [novobiocin]	–	*** (*** = 8 fold +)	** (** = 4-7.9 fold)	*** (*** = 8 fold +)	–	–	–	12.5
